Laboratory results from PMC4833812, “Incorporation of tryptophan analogues into the lantibiotic nisin” (Amino Acids, 2016).

Tests used:
L. lactis MG1363 = assay: MIC test against indicator strain L. lactis MG1363; type: cell-based, Lactococcus lactis; details: for Change of antimicrobial activity, in words: I1 variants compared to I1W, I4 variant compared to nisin
Protocol: The indicator strain L. lactis MG1363 was first streaked on a GM17 plate and cultured overnight. Before testing the MIC, three to five colonies were picked and cultured with GM17 medium until OD600 reached 0.5. The culture was diluted 500 times with GM17 and mixed with the same volume of peptides dissolved in GM17. The MIC value test was performed according to Wiegand et al. ([2008]).

[1] = Retention time in reverse phase chromatography (HPLC); type: physicochemical; details: reverse phase HPLC as described previously (Zhou et al. 2015); used by the paper to reflect changed hydrophobicity/polarity of the variants
Protocol: To obtain pure peptides for activity tests, the supernatant of 100 ml culture (filtered with 0.2 µm filter, Millipore) was first incubated with 5 ml supernatant of NisP (filtered) at 30 °C for 1 h to cut off the leader part and then purified with cation-ion exchange (HiTrap SP FF, GE healthcare) (van Heel et al. [2013]). The elutions were further loaded on a C18 column (Spherical C18, Sigma- Aldrich). The column was washed and eluted with different concentrations of solution B (solution A, milliQ with 0.1 % TFA; solution B, isopropanol: acetonitrile (2:1) with 0.1 % TFA). The elutions which were active against L. lactis were freeze-dried and further purified with HPLC as described previously (Zhou et al. [2015]). The fractions containing the peaks in the HPLC chromatogram were analysed by activity tests and MALDI-TOF (van Heel et al. [2013]). The peak which was active and contained the pure peptide with right mass was freeze-dried and quantified with HPLC as described previously (Zhou et al. [2015]).
Nisin is a positively charged and hydrophobic molecule. […] This difference was reflected by the elution time of the peptides in cation-ion exchange and reverse phase chromatography (HPLC). The variants with 5HW were eluted about half column volume earlier than other variants during cation-ion exchange (data not shown).

Micrococcus flavus = details: ref Kuipers et al. 1995; Demel et al. 1996; Van Kraaij et al. 1997; Breukink et al. 1998; cited from earlier work
From the text: (§1) The first two rings of nisin can bind to lipid II which is essential for cell wall synthesis. The C-terminus of nisin can insert into the membrane enabling pore formation (Breukink and de Kruijff [2006]). Mutagenesis of nisin has been conducted extensively and several residues have been mutated to tryptophan, e.g. I1W, M17W and V32W, which all reduce nisin activity but not dramatically, against Micrococcus flavus by two to three times and against Streptococcus thermophilus by three to eigh ... || The first two rings of nisin can bind to lipid II by forming a pyrophosphate cage (Hsu et al. [2004]).

[2] = system: Streptococcus thermophilus; details: ref Kuipers et al. 1995; Demel et al. 1996; Van Kraaij et al. 1997; Breukink et al. 1998; cited from earlier work
From the text: as §1

| SMILES | Change of antimicrobial activity, in words (L. lactis MG1363; listed as 5FW analogue of I1W) | Change of antimicrobial activity, in words (L. lactis MG1363; listed as 5FW labelled I1W) | Reduction of antimicrobial activity compared to nisin (L. lactis MG1363; from MIC values) | Retention time of HPLC [1] [min] | Reduction of antimicrobial activity compared to I1W (L. lactis MG1363; from MIC values) | Reduction of nisin activity against Micrococcus flavus (Micrococcus flavus) | Reduction of nisin activity against Streptococcus thermophilus [2] |
| --- | --- | --- | --- | --- | --- | --- | --- |
| C=C(NC(=O)[C@@H](NC(=O)[C@H](Cc1c[nH]cn1)NC(=O)[C@@H](NC(=O)[C@H](CO)NC(=O)[C@@H]1CS[C@@H](C)[C@H]2NC(=O)[C@H](C)NC(=O)[C@H](NC(=O)[C@H](CCCCN)NC(=O)[C@H](CCSC)NC(=O)[C@H](CC(N)=O)NC(=O)[C@@H]3CS[C@@H](C)[C@@H](NC(=O)[C@H](CCCCN)NC(=O)[C@@H]4CS[C@@H](C)[C@@H](NC(=O)[C@@H]5CSC[C@@H](NC(=O)/C(=C/C)NC(=O)[C@@H](N)Cc6c[nH]c7ccc(F)cc67)C(=O)N[C@@H]([C@@H](C)CC)C(=O)NC(=C)C(=O)N[C@@H](CC(C)C)C(=O)N5)C(=O)N5CCC[C@H]5C(=O)NCC(=O)N4)C(=O)NCC(=O)N[C@@H](C)C(=O)N[C@@H](CC(C)C)C(=O)N[C@@H](CCSC)C(=O)NCC(=O)N3)[C@H](C)SC[C@H](NC2=O)C(=O)N[C@@H](Cc2c[nH]cn2)C(=O)N1)[C@@H](C)CC)C(C)C)C(=O)N[C@@H](CCCCN)C(=O)O [I1-5FW] | did not change the activity | the same activity | two | 38.9 | – | – | – |
| C=C(NC(=O)[C@@H](NC(=O)[C@H](Cc1c[nH]cn1)NC(=O)[C@@H](NC(=O)[C@H](CO)NC(=O)[C@@H]1CS[C@@H](C)[C@H]2NC(=O)[C@H](C)NC(=O)[C@H](NC(=O)[C@H](CCCCN)NC(=O)[C@H](CCSC)NC(=O)[C@H](CC(N)=O)NC(=O)[C@@H]3CS[C@@H](C)[C@@H](NC(=O)[C@H](CCCCN)NC(=O)[C@@H]4CS[C@@H](C)[C@@H](NC(=O)[C@@H]5CSC[C@@H](NC(=O)/C(=C/C)NC(=O)[C@@H](N)Cc6c[nH]c7ccc(O)cc67)C(=O)N[C@@H]([C@@H](C)CC)C(=O)NC(=C)C(=O)N[C@@H](CC(C)C)C(=O)N5)C(=O)N5CCC[C@H]5C(=O)NCC(=O)N4)C(=O)NCC(=O)N[C@@H](C)C(=O)N[C@@H](CC(C)C)C(=O)N[C@@H](CCSC)C(=O)NCC(=O)N3)[C@H](C)SC[C@H](NC2=O)C(=O)N[C@@H](Cc2c[nH]cn2)C(=O)N1)[C@@H](C)CC)C(C)C)C(=O)N[C@@H](CCCCN)C(=O)O [I1-5HW] | – | – | four | 35.0 | two | – | – |
| C=C(NC(=O)[C@@H](NC(=O)[C@H](Cc1c[nH]cn1)NC(=O)[C@@H](NC(=O)[C@H](CO)NC(=O)[C@@H]1CS[C@@H](C)[C@H]2NC(=O)[C@H](C)NC(=O)[C@H](NC(=O)[C@H](CCCCN)NC(=O)[C@H](CCSC)NC(=O)[C@H](CC(N)=O)NC(=O)[C@@H]3CS[C@@H](C)[C@@H](NC(=O)[C@H](CCCCN)NC(=O)[C@@H]4CS[C@@H](C)[C@@H](NC(=O)[C@@H]5CSC[C@@H](NC(=O)/C(=C/C)NC(=O)[C@@H](N)Cc6c[nH]c7ccccc67)C(=O)N[C@@H]([C@@H](C)CC)C(=O)NC(=C)C(=O)N[C@@H](CC(C)C)C(=O)N5)C(=O)N5CCC[C@H]5C(=O)NCC(=O)N4)C(=O)NCC(=O)N[C@@H](C)C(=O)N[C@@H](CC(C)C)C(=O)N[C@@H](CCSC)C(=O)NCC(=O)N3)[C@H](C)SC[C@H](NC2=O)C(=O)N[C@@H](Cc2c[nH]cn2)C(=O)N1)[C@@H](C)CC)C(C)C)C(=O)N[C@@H](CCCCN)C(=O)O [I1-W] | – | – | two | 38.0 | – | two to three | three to eight |
| C=C(NC(=O)[C@@H](NC(=O)[C@H](Cc1c[nH]cn1)NC(=O)[C@@H](NC(=O)[C@H](CO)NC(=O)[C@@H]1CS[C@@H](C)[C@H]2NC(=O)[C@H](C)NC(=O)[C@H](NC(=O)[C@H](CCCCN)NC(=O)[C@H](CCSC)NC(=O)[C@H](CC(N)=O)NC(=O)[C@@H]3CS[C@@H](C)[C@@H](NC(=O)[C@H](CCCCN)NC(=O)[C@@H]4CS[C@@H](C)[C@@H](NC(=O)[C@@H]5CSC[C@@H](NC(=O)/C(=C/C)NC(=O)[C@@H](N)[C@@H](C)CC)C(=O)N[C@@H]([C@@H](C)CC)C(=O)NC(=C)C(=O)N[C@@H](CC(C)C)C(=O)N5)C(=O)N5CCC[C@H]5C(=O)NCC(=O)N4)C(=O)NCC(=O)N[C@@H](C)C(=O)N[C@@H](CC(C)C)C(=O)N[C@@H](Cc4c[nH]c5ccc(O)cc45)C(=O)NCC(=O)N3)[C@H](C)SC[C@H](NC2=O)C(=O)N[C@@H](Cc2c[nH]cn2)C(=O)N1)[C@@H](C)CC)C(C)C)C(=O)N[C@@H](CCCCN)C(=O)O [M17-5HW] | – | – | 32 times | 37.2 | – | – | – |
| C=C(NC(=O)[C@@H](NC(=O)[C@H](Cc1c[nH]cn1)NC(=O)[C@@H](NC(=O)[C@H](CO)NC(=O)[C@@H]1CS[C@@H](C)[C@H]2NC(=O)[C@H](C)NC(=O)[C@H](NC(=O)[C@H](CCCCN)NC(=O)[C@H](CCSC)NC(=O)[C@H](CC(N)=O)NC(=O)[C@@H]3CS[C@@H](C)[C@@H](NC(=O)[C@H](CCCCN)NC(=O)[C@@H]4CS[C@@H](C)[C@@H](NC(=O)[C@@H]5CSC[C@@H](NC(=O)/C(=C/C)NC(=O)[C@@H](N)[C@@H](C)CC)C(=O)N[C@@H]([C@@H](C)CC)C(=O)NC(=C)C(=O)N[C@@H](CC(C)C)C(=O)N5)C(=O)N5CCC[C@H]5C(=O)NCC(=O)N4)C(=O)NCC(=O)N[C@@H](C)C(=O)N[C@@H](CC(C)C)C(=O)N[C@@H](Cc4c[nH]c5ccccc45)C(=O)NCC(=O)N3)[C@H](C)SC[C@H](NC2=O)C(=O)N[C@@H](Cc2c[nH]cn2)C(=O)N1)[C@@H](C)CC)C(C)C)C(=O)N[C@@H](CCCCN)C(=O)O [M17-W] | – | – | 32 times | 38.5 | – | two to three | three to eight |
